Results on 4 molecules are retold here after patent publication US20240335451A1, “ACRYLAMIDE DERIVATIVES USEFUL AS ANTI-INFLAMMATORY AGENTS” (Sitryx Therapeutics Limited, priority 2021, published 2024).

Some results are limits rather than exact numbers.

Assay type in all cases: cell-based
The test system of experiment [1] is IL-6 cytokine output from THP-1s. The experiment is described as follows: THP-1 AlphaLISA IL-6 cytokine assay (differentiated THP-1 cells, LPS then nigericin). The following applies: 30 min pre-incubation, LPS 24 hr, nigericin 1 hour. The protocol: (§1) Measuring Inhibitory Effects on IL-1β and IL-6 Cytokine Output from THP-1s
(§2) The cytokine inhibition profiles of compounds of formula (I) were determined in a differentiated THP-1 cell assay. All assays were performed in RPMI-1640 growth medium (Gibco), supplemented with 10% fetal bovine serum (FBS; Gibco), 1% penicillin-streptomycin and 1% sodium pyruvate unless specified otherwise. The IL-1β and IL-6 cytokine inhibition assays were each run in a background of differentiated THP-1 cells as described below. All reagents described were from Sigma-Aldrich unless specified otherwise. Compounds were prepared as 10 mM DMSO stocks.
(§3) THP-1 cells were expanded as a suspension up to 80% confluence in appropriate growth medium. Cells were harvested, suspended, and treated with an appropriate concentration of phorbol 12-myristate 13-acetate (PMA) over a 72 hr period (37° C./5% CO2).
(§4) Following 72 hrs of THP-1 cell incubation, cellular medium was removed and replaced with fresh growth media containing 1% of FBS. Working concentrations of compounds were prepared separately in 10% FBS treated growth medium and pre-incubated with the cells for 30 minutes (37° C./5% CO2). Following the 30 minute compound pre-incubation, THP-1s were treated with an appropriate concentration of LPS and the THP-1s were subsequently incubated for a 24 hr period (37° C./5% CO2). An appropriate final concentration of Nigericin was then dispensed into the THP-1 plates and incubated for 1 hour (37° C./5% CO2) before THP-1 supernatants were harvested and collected in separate polypropylene 96-well holding plates.
(§5) Reagents from each of the IL-1β and IL-6 commercial kits (Perkin Elmer) were prepared and run according to the manufacturer's instructions. Subsequently, fluorescence signal detection in a microplate reader was measured (EnVision® Multilabel Reader, Perkin Elmer).
(§6) Percentage inhibition was calculated per cytokine by normalizing the sample data to the high and low controls used within each plate (+/−LPS respectively).
On the technique in general: In Alpha technology, singlet oxygen from a donor bead excites a nearby acceptor bead.

Experiment [2] deals with NRF2 (nuclear factor erythroid 2-related factor 2). Briefly: NRF2 activation assay (DiscoverX PathHunter NRF2 translocation kit, U2OS cells). Conditions: for Emax / EC50: Homo sapiens; for Emax: U2OS; for EC50: U2OS PathHunter cells, 6 hours.
Experiment [3] deals with IL-1β cytokine output from THP-1s. Briefly: THP-1 AlphaLISA IL-1β cytokine assay (differentiated THP-1 cells, LPS then nigericin). The following applies: 30 min pre-incubation, LPS 24 hr, nigericin 1 hour. On the procedure: as §1, §2, §3, §4, §5, §6
The mark [4] stands for this setting: +GSH, normalised to dimethyl fumarate high control.
Where [5] appears, read: −GSH, normalised to dimethyl fumarate high control.
The mark [6] stands for this setting: +GSH (30 minute compound/GSH pre-incubation).

As a reminder, the IC50 is the point on the concentration scale where inhibition reaches its midpoint. The term Emax denotes the size of the effect at its maximum, as opposed to the concentration needed. As usually defined, the EC50 is the midpoint of the concentration-response curve. As to `C=C(Cc1nc(C2(c3ccc(SC(F)(F)F)cc3)CC2)no1)C(=O)NC(C(=O)O)C(F)(F)F` (stereo not shown) [Example 28, 3,3,3-trifluoro-2-(2-((3-(1-(4-((trifluoromethyl)thio)phenyl)cyclopropyl)-1,2,4-oxadiazol-5-yl)methyl)acrylamido)propanoic acid], the results for the IC50 in experiment [1] (Homo sapiens) and in experiment [3] (Homo sapiens) were 16.2 µM and 7.9 µM, respectively. For the same molecule, the Emax is 34% in experiment [2] (setting [4]) and 67% in experiment [2] (setting [5]). For the same molecule, the EC50 in experiment [2] (setting [6]) is greater than 100 µM; in experiment [2] (−GSH), 31.8 µM.
`C=C(CC(=O)OC1(c2ccc(C(F)(F)F)cc2)CCC1)C(N)=O` [Example 8, 1-(4-(trifluoromethyl)phenyl)cyclobutyl 3-carbamoylbut-3-enoate]: the IC50 in experiment [1] (Homo sapiens) was 13.9 µM; in experiment [3] (Homo sapiens), 34.3 µM. The values for the Emax in experiment [2] (setting [4]) and in experiment [2] (setting [5]) were 7% and 21%, respectively. Besides, the EC50 in experiment [2] (setting [6]) and in experiment [2] (−GSH) was greater than 100 µM each time.
As for `C=C(CC(=O)OCCCCCCCC)C(=O)O` [4-octyl itaconate, reference compound], the IC50 in experiment [1] was determined as 21.1 µM; in experiment [3], 39.8 µM. Also, in experiment [2] (setting [4]), the “NRF2 activation Emax, +GSH” value came to 148%. In addition, in experiment [2] (setting [5]), the “NRF2 activation Emax, −GSH” value is on record as 165%.
For the molecule `C=C(CC(=O)OC1(c2cc(Cl)cc(Cl)c2)CCC1)C(N)=O` [Example 20, 1-(3,5-dichlorophenyl)cyclobutyl 3-carbamoylbut-3-enoate], the IC50 in experiment [1] (Homo sapiens) was 8.3 µM; in experiment [3] (Homo sapiens) it was 13.2 µM. In addition, the values for the Emax in experiment [2] (setting [4]) and in experiment [2] (setting [5]) were 28% and 156%, respectively. Further, the EC50 in experiment [2] (setting [6]) is greater than 100 µM; in experiment [2] (−GSH) it was 35.2 µM.
